# Laboratory results reported in patent US20250332154A1, “USE OF NAPHTHOQUINE PHOSPHATE IN PREPARATION OF A MEDICAMENT FOR TREATING AUTOIMMUNE DISEASES” (SHANGHAI PHARMACEUTICALS INDUSTRY CO., LTD, priority 2022, published 2025).
# What was measured:
# Format in all cases: in vivo, mouse
# anti-nuclear antibodies = test: Anti-nuclear antibodies in serum of MRL/lpr mice (ANA kit); conditions: intragastric 25, 50 mg/kg, FIG. 8
# Experimental: Normal group, model group, positive medicament (1 mg/kg prednisone) group, naphthoquine phosphate (25, 50 mg/kg) group, hydroxychloroquine sulfate (100 mg/kg) group.
# At the end of the experiment, eyeballs were removed to collect blood. ELISA method was used to detect the levels of anti-dsDNA antibodies in serum of experimental mice, and the anti-nuclear antibody kit was used to detect the levels of anti-nuclear antibodies. […] (Note: * P value<0.05, ** P value<0.01, *** P value<0.001, compared with model group.)
# [1] = test system: spleen and lymph node lymphocytes in arthritic mice; test: Lymphocyte proliferation of spleen and lymph nodes of arthritic mice (3H-TdR incorporation); conditions: intragastric, cells stimulated ex vivo, FIG. 3
# Experimental: (§1) Normal group, model group, positive medicament (1 mg/kg dexamethasone) group, naphthoquine phosphate (25, 50, 100 mg/kg) groups, hydroxychloroquine sulfate (100 mg/kg) group.
# (§2) 10 mg of Type II Collagen (CII) was swollen in 2.5 ml of 0.1 mol/L glacial acetic acid to prepare a 4 mg/ml CII solution. This solution was fully emulsified with an equal volume of CFA, and injected subcutaneously (50 μl) at the base of the tail of mice. After 21 days, 4 mg/ml CII solution was fully emulsified with an equal volume of IFA. This mixture was injected subcutaneously (50 μL) at the base of the tail of mice to boost the immune response.
# Lymphocyte proliferation in each group was assessed using the ^3H-TdR incorporation method. Lymph nodes […] of mice in each group were isolated to prepare lymphocyte suspensions. The cells were inoculated into each well of a 96-well plate. ConA (final concentration: 5 μg/ml) and LPS (final concentration: 10 μg/ml) were added respectively, and cultured in a 37° C., 5% CO2 incubator for 48 hours. Eight hours before the end of the culture, 25 μl ^3H-TdR and anti-CD3 (final concentration: 5 μg/ml, pre-incubated overnight) were added to each well. The cells were cultured in a 37° C., 5% CO2 incubator for […]. […] 5 ml scintillation fluid was added, and the values of radioactive counts per minute were read on a Beta counter (2450 Microplate Counter, PerkinElmer).
# [2] = test system: bovine type II collagen-induced arthritis in mice; test: Bovine type II collagen-induced arthritis in mice: arthritis scoring and hindfoot thickness
# Experimental: as §1, §2
# The severity of arthritis was scored by observing joint lesions of limbs of mice. Detectable arthritis accompanied by erythema in one or more fingers was scored as 1 point, moderate redness and swelling from the ankle joint to the middle of the foot was scored as 2 points, severe redness and swelling from the ankle joint to the fingers was scored as 3 points, and severe swelling with ankylosis was scored as 4 points. During scoring, bilateral hindfoot thickness was measured.
# [3] = test system: bovine type II collagen-induced arthritis in mice; test: Bone morphological analysis by Micro-CT in arthritic mice; conditions: intragastric, FIG. 5
# Experimental: as §1, §2
# Three-dimensional reconstruction was performed by the micro-CT technology, and bone morphology analysis was performed by professional analysis software.
smiles,measurement,setting,value
"CC(C)(C)NCc1cc(Nc2ccnc3cc(Cl)ccc23)c2c(c1O)CCCC2.O=P(O)(O)O.O=P(O)(O)O [Naphthoquine Phosphate, Naphthoquine phosphate]",levels of anti-nuclear antibodies in serum,anti-nuclear antibodies,significantly reduced
same,proliferation of spleen and lymph node lymphocytes in arthritic mice,[1],significantly inhibit
same,arthritis scores of model mice,"[2]; intragastric, 25, 50, 100 mg/kg, FIG. 1, vs model group",significantly reduced
same,foot swelling in arthritic mice,"[2]; intragastric, FIG. 2",improved
same,therapeutic effect on arthritis scores compared with hydroxychloroquine sulfate,"[2]; same dose (100 mg/kg), FIG. 1",superior to that of hydroxychloroquine sulfate at the same dose
same,bone damage in model mice (Micro-CT),[3],inhibited
